Values joined by “and” are separate entries in the source; they are usually repeats but may differ in a detail not shown here. Identical values can stand only once.
What was measured:
[1] = Metabolite analysis in plasma after i.v. [11C]phenytoin; type: in vivo, Sprague–Dawley rats; conditions: for Percentage of intact [11C]phenytoin, plasma: rat plasma, N = 2
Experimental: Chemicals were obtained from Sigma Aldrich (St. Louis, MO, USA) and were used without further purification. All reactions were carried out under an argon atmosphere unless stated otherwise. [^11C]CO2 was produced using an IBA Cyclone 18/9 cyclotron (IBA, Louvain-La-Neuve, Belgium) by the ^14N(p,α)^11C nuclear reaction performed in a 0.5% O2/N2 gas mixture. Water was purified over a Millipore filter (Millipore, Leiden, The Netherlands). The silica gel used as stationary phase for flash column chromatography was grade 9385, 230 to 400 mesh, 60 Å and obtained from Sigma Aldrich. Chemical shifts (δ) of nuclear magnetic resonance (NMR) spectra were defined relative to the signal of the solvent (7.26 for CDCl3 and 2.50 for DMSO-d6) and measured on a Bruker Avance 250 (Bruker, Billerica, MA, USA), with δ reported in parts per million relative to the solvent. Infrared (IR) spectra were obtained using a Shimadzu FTIR-8400 S (Shimadzu, Kyoto, Japan), and wavelengths (ν) are reported in per centimeter and (s), (m) and (w), indicating strong, moderate and weak signal, respectively. Electrospray ionization high-resolution mass spectrometry (ESI-HRMS) was carried out using a Bruker microTOF-Q instrument in positive ion mode (capillary potential of 4.500 V); electrospray ionization mass spectrometry was carried out using an AB Sciex Qtrap 5500 LC-MS/MS instrument (AB Sciex, Foster City, CA, USA) in negative ion mode. Semi-preparative high performance liquid chromatography (HPLC) was performed on an ACE 5-μM C18, 250*10-mm column (Alltech, Nicholasville, KY, USA) using the following settings: wavelength 230 nm, eluent MeCN/H2O/TFA 60/40/0.15 (v/v/v) and flow 4 mL·min^−1 (method A). Analytical HPLC was performed on a Kromasil 100 C18 10-μM (4.6 to 250 mm) column (Grace Alltech, Breda, The Netherlands) with the following settings: wavelength 230 nm, eluent acetonitrile/water/[…] 75/25/0.2 (v/v/v) and flow 1 mL·min^−1 (method B). Metabolite analysis was performed on a Gemini C18 5-μm (10 to 250 mm) column (Phenomenex, Torrance, CA, USA) (method C) with gradient and a mixture of (A) acetonitrile and (B) 0.1% trifluoro acetic acid in H2O as eluent according to the following scheme: 0 min, 90% B at 0.25 mL·min^−1; 0.5 min, 20% B at 4 mL·min^−1; 9.0 min, 30% B at 4 mL·min^−1; 13 min, 30% B at 4 mL·min^−1; 14.0 min, 90% B at 4.0 mL·min^−1 and 15 min, 90% B at 0.25 mL·min^−1. Tetrahydrofuran (THF), which was used during experiments, was distilled over LiAlH4 just prior to the experiments unless stated otherwise.
To study the metabolic profile of [^11C]phenytoin in the plasma and brain, five male Sprague–Dawley rats were injected with 150 to 250 MBq [^11C]phenytoin in the tail vein under isoflurane anesthesia. Three of these animals were pretreated with 15 mg·kg^−1 tariquidar 20 min prior to [^11C]phenytoin administration. Three arterial blood samples of 0.5, 0.8 and 1.2 mL were withdrawn at 10, 30 and 45 min or at 5, 15 and 25 min after [^11C]phenytoin injection, respectively. Immediately following the last blood sample, the rats were euthanized, and the brain was isolated. All blood samples were collected in heparin tubes and centrifuged at 4.000 rpm for 5 min at 4°C (Hettich Universal 16, Depex B.V., The Netherlands). Plasma was separated from blood cells and, between 0.3 and 0.7 mL, was loaded onto a tC-18 Sep-Pak (Waters, The Netherlands) and washed with 20 mL of water. The eluate was defined as the polar radiolabeled metabolite fraction. Thereafter, the tC-18 Sep-Pak was eluted with 1.5 ml of methanol. This eluate was defined as the nonpolar fraction and was analyzed using HPLC method C. Brain tissue was homogenized with an ultrasonic homogenizer (Braunsonic 1510, Kronberg, Germany) in water, under ice cooling, and subsequently centrifuged at 4,000 rpm for 5 min at 4°C. Separated supernatants were loaded onto a tC-18 Sep-Pak and washed with 20 mL water to obtain the polar fraction.

[2] = Metabolite analysis in brain tissue after i.v. [11C]phenytoin; type: in vivo, Sprague–Dawley rats; conditions: rat brain, N = 2
Experimental: Chemicals were obtained from Sigma Aldrich (St. Louis, MO, USA) and were used without further purification. All reactions were carried out under an argon atmosphere unless stated otherwise. [^11C]CO2 was produced using an IBA Cyclone 18/9 cyclotron (IBA, Louvain-La-Neuve, Belgium) by the ^14N(p,α)^11C nuclear reaction performed in a 0.5% O2/N2 gas mixture. Water was purified over a Millipore filter (Millipore, Leiden, The Netherlands). The silica gel used as stationary phase for flash column chromatography was grade 9385, 230 to 400 mesh, 60 Å and obtained from Sigma Aldrich. Chemical shifts (δ) of nuclear magnetic resonance (NMR) spectra were defined relative to the signal of the solvent (7.26 for CDCl3 and 2.50 for DMSO-d6) and measured on a Bruker Avance 250 (Bruker, Billerica, MA, USA), with δ reported in parts per million relative to the solvent. Infrared (IR) spectra were obtained using a Shimadzu FTIR-8400 S (Shimadzu, Kyoto, Japan), and wavelengths (ν) are reported in per centimeter and (s), (m) and (w), indicating strong, moderate and weak signal, respectively. […]
To study the metabolic profile of [^11C]phenytoin in the plasma and brain, five male Sprague–Dawley rats were injected with 150 to 250 MBq [^11C]phenytoin in the tail vein under isoflurane anesthesia. […] This eluate was defined as the nonpolar fraction and was analyzed using HPLC method C. […]

- Percentage of intact [11C]phenytoin, plasma ([1]; 5 min after injection): 60 ± 7%
- Percentage of intact [11C]phenytoin, plasma ([1]; 10 min after injection): 50 ± 16%
- Percentage of intact [11C]phenytoin, plasma ([1]; 15 min after injection): 38 ± 3%
- Percentage of intact [11C]phenytoin, plasma ([1]; 25 min after injection): 28 ± 2%
- Percentage of intact [11C]phenytoin, plasma ([1]; 30 min after injection): 32 ± 18%
- Percentage of intact [11C]phenytoin, plasma ([1]; 45 min after injection): 19% and 19 ± 8%
- Metabolism in tariquidar-treated versus untreated rats ([1]; tariquidar 15 mg·kg^−1, 20 min prior to tracer): no difference in metabolism
- Percentage of intact [11C]phenytoin, brain ([2]; 25 min after injection): 95 ± 1%
- Percentage of intact [11C]phenytoin, brain ([2]; 45 min after injection): 83% and 83 ± 5%
Structure (SMILES): O=C1N[11C](=O)NC1(c1ccccc1)c1ccccc1 [[^11C]phenytoin]

Reference: publication PMC3506555, “[^11C]phenytoin revisited: synthesis by [^11C]CO carbonylation and first evaluation as a P-gp tracer in rats” (EJNMMI Research, 2012)
